Reference: patent publication US7579167B2, “Polypeptides involved in the biosynthesis of spiramycins, nucleotide sequences encoding these polypeptides and applications thereof” (Aventis Pharma S., priority 2002, dated 2009)

Key:
[1] = comparison with spiramycins II and III; cited from earlier work

Text for Micrococcus luteus: The strain of Micrococcus luteus used is a strain naturally sensitive to spiramycin but resistant to congocidine.

| SMILES | antibiotic activity compared with spiramycins II and III [1] | activity compared with the spiramycin of origin with the methyl group at position 4 (less active by a factor) (Micrococcus luteus; microbiological test on a sensitive strain of M. luteus) | microbiological activity compared with the unmodified spiramycin (weaker) (Micrococcus luteus; tested on the microorganism Micrococcus luteus, relative to unmodified spiramycin) [fold] |
| --- | --- | --- | --- |
| CO[C@@H]1[C@@H](O[C@@H]2O[C@H](C)[C@@H](O[C@H]3C[C@@](C)(O)[C@@H](O)[C@H](C)O3)[C@H](N(C)C)[C@H]2O)[C@@H](CC=O)C[C@@H](C)[C@@H](O[C@H]2CC[C@H](N(C)C)[C@@H](C)O2)/C=C/C=C/C[C@@H](C)OC(=O)C[C@H]1O [spiramycin I] | clearly greater |  |  |
| CC1CC=CC=CC(OC2CCC(N(C)C)C(C)O2)C(C)CC(CC=O)C(OC2OC(C)C(OC3CC(C)(O)C(O)C(C)O3)C(N(C)C)C2O)C(O)C(O)CC(=O)O1 (stereo not drawn) [spiramycin without the methyl group] |  | 10 | 10 |
